These results are taken from patent EP0427078A1, “Folinic acid-cyclodextrin inclusion compound” (MAGIS FARMACEUTICI S.p.A., priority 1989, dated 1991).

The nature of data set [1]: Acute toxicity (LD50) in the mouse. To be noted: in vivo, read-out: LD₅₀.
The format of data set [2] is physicochemical.

Take `Nc1nc(=O)c2c([nH]1)NCC(CNc1ccc(C(=O)NC(CCC(=O)O)C(=O)O)cc1)N2C=O` (stereo not shown) [Calcium folinate, calcium folinate]: in data set [1], the LD50 is more than 7000 mg/kg. In addition, in data set [2], the “STABILITY AT pH 2 MICROBIOLOGICAL TITRE AFTER 3 MONTHS” value is recorded as 40%, the “STABILITY AT pH 2 MICROBIOLOGICAL TITRE AFTER 6 MONTHS” value amounted to 20% and the “STABILITY AT pH 2 MICROBIOLOGICAL TITRE TIME 0” value came out at 100%.
